Experimental data: US20090104171A1, “Metabolic Enhancement Therapy” (priority 2007, published 2009)

Assays:
[1] = oral supplementation, patient groups; cited from earlier work
NMDA glycine site = conditions: in vivo; cited from earlier work
[2] = cited from earlier work
[3] = Case study Example 2: person with moderately functioning autism; format: in vivo, human; conditions: autistic person; for alleviation of behavioral symptoms: complete formulation
Source text: Person diagnosed with moderately functioning autism. Subject's behaviors were noteworthy for acute social withdrawal, pronounced language deficit, obsessive compulsive behaviors, acute anxiety attacks, aggression, hyperactivity, loss of concentration, fear and panic disorder, hyperactivity, depression, sleep deficit and acoustic hypersensitivity. Subject experienced loss of appetite and was underweight, although growth and sexual development was not stunted. […]

[4] = system: yeasts and yeast-like fungi; conditions: cited from earlier work
[5] = system: bacteria, protozoa or viruses; conditions: cited from earlier work
[6] = oral; cited from earlier work
[7] = Case study Example 3: person with schizophrenia; conditions: for relief of symptoms (anxiety, obsessive compulsive behavior, psychosis): schizophrenic, formulation given while remaining on clozapine and lithium
Source text: Person diagnosed with schizophrenia. Hospitalized several times suffering from acute psychotic attack with hallucinations and paranoia. Treated with many typical and atypical antipsychotic drugs. […] Over the years, several diagnoses were given, including bipolar disorder, obsessive-compulsive disorder, affective disorder, and combinations thereof. Medications have included lithium, olanzapine, prozac, and several sleep medications. […] Patient went through years of treatment programs and weekly psychiatric sessions. Although they managed (with extreme difficulty) to obtain BA and MA degrees, paranoia and anxiety prevented them from working. Recent history. Patient has been on an atypical antipsychotic (clozapine) and high doses of lithium carbonate for the past 2 years. […] Patient started on Metabolic Enhancement Therapy with the disclosed formulation, while remaining on clozapine and lithium.

[8] = Case study Example 4: person with acute anxiety disorder and depression; conditions: 2 years of treatment
[9] = in vivo; cited from earlier work

## N[C@@H](Cc1c[nH]c2ccc(O)cc12)C(=O)O [5-hydroxytryptophan]
[1]
  effect on depression in clinical trials: only minor signs of efficacy

## N[C@@H]1CONC1=O [D-cycloserine]
NMDA glycine site
  extinction of conditioned fear: augment the extinction of conditioned fear

## O=C(O)c1cccnc1 [Niacin]
[2]; 2-4 g/day
  effects at pharmacologic doses: vasodilation (flushing reaction), a marked decrease in circulation fatty acids, cholesterol and lipoproteins, and an elevation of serum glucose and uric acid
[2]; in vivo
  dose without reported toxicity: up to 50 mg/day

## C[C@@H]1[C@H](O)[C@@H](C)/C=C/C=C/CC/C=C/C=C/C=C/C=C/C(O[C@H]2O[C@H](C)[C@@H](O)[C@H](N)[C@@H]2O)CC2O[C@](O)(CC(O)C(O)CCC(O)CC(O)CC(O)CC(=O)O[C@H]1C)CC(O)C2C(=O)O (some centres unmarked) [Nystatin]
[3]
  control of chronic intestinal yeast infections: effectively controlled yeast infections
[4]
  antifungal activity: both fungistatic and fungicidal
[5]
  activity against bacteria, protozoa or viruses: no activity
[6]
  gastrointestinal absorption: insignificant
[2]; in vivo
  tolerability / toxicity in words: generally well tolerated by all age groups

## CNCCC(Oc1ccc(C(F)(F)F)cc1)c1ccccc1 (centres unmarked) [Prozac]
[7]; in vivo
  side effects induced by medication: induce tremors, rigidity, weight gain and diabetes
[7]
  relief of symptoms (anxiety, obsessive compulsive behavior, psychosis): None provided relief of symptoms
[8]
  side effects: negative side effects

## C[S+](CC[C@H](N)C(=O)O)C[C@H]1O[C@@H](n2cnc3c(N)ncnc32)[C@H](O)[C@@H]1O (some centres unmarked) [S-adenosyl methionine (SAMe), S-adenosyl methionine]
[1]
  effect on depression in clinical trials: effective treatment for depression

## Cc1ncc(C[n+]2csc(CCO)c2C)c(N)n1 [Vitamin B1, Thiamine]
[2]; in vivo
  tolerability / toxicity in words: toxicities are very rare

## CC(=O)O[C@H](CC(=O)[O-])C[N+](C)(C)C [acetyl-L-carnitine]
[1]
  effect on depression in clinical trials: effective in relieving depression

## NCC(=O)O [glycine]
[1]
  effect on depression in clinical trials: useful in the treatment of certain forms of bipolar depression

## O=C([O-])[O-].[Li+].[Li+] [lithium carbonate]
[7]
  relief of symptoms (anxiety, obsessive compulsive behavior, psychosis): Obsessive-compulsive behavior progressively deteriorated

## O=C([O-])c1cc(=O)[nH]c(=O)[nH]1.[Li+] [lithium orotate]
[9]
  increase of delivery of lithium to brain by complexing with orotate: over 100 fold

## [Li] [lithium]
[7]; prior medications
  side effects induced by medication: induce tremors, rigidity, weight gain and diabetes

## Cc1cc2c(s1)Nc1ccccc1N=C2N1CCN(C)CC1 [olanzapine]
[7]; in vivo
  side effects induced by medication: induce tremors, rigidity, weight gain and diabetes

## Cc1ncc(CO)c(CO)c1O [vitamin B6, pyridoxine]
[1]
  effect on depression in clinical trials: helps alleviate depression associated with premenstrual syndrome
[2]; in vivo
  dose reported to induce peripheral neuropathy: exceed 2,000 mg/day

## amoxtatine
[3]
  alleviation of behavioral symptoms: proved totally ineffective

## secretin
[3]
  alleviation of behavioral symptoms: proved totally ineffective

## vitamin B12
[1]
  effect on depression in clinical trials: responsive to B12 supplementation

## vitamin E
[2]; in vivo
  dose without reported toxicity: up to 800 mg/day
